Patent US20090024021A1, “Methods and Systems for Using Transcranial Magnetic Stimulation and Functional Brain Mapping for Examining Cortical Sensitivity, Brain Communication, and Effects of Medication” (priority 2002, published 2009)
“Also recorded” adds a separate entry of the source.

System: left prefrontal cortex
Assay: Interleaved TMS/phMRI (BOLD fMRI) with TMS over prefrontal cortex
Assay type: in vivo, human
Conditions: for Voxels, effect of LTG (between day) / Z-score, effect of LTG (between day): Prefrontal Cortex Stimulation, LTG-Placebo
Protocol: Study design: We performed a randomized, double-blind, crossover trial involving two visits at least one week apart (FIG. 8). […] Serum LTG levels, RMTs, and interleaved TMS/phMRI images during both motor and then prefrontal TMS were then gathered for each subject. One week later they received LTG or placebo again, followed by identical RMT and interleaved TMS/phMRI studies.
Combined TMS and MRI: Immediately following RMT determination, interleaved TMS/phMRI acquisitions were performed in a Picker EDGE 1.5 T MR scanner with actively shielded magnet and high-performance gradients (27 mT/m, 72 T/m/sec) using a typical gradient echo, echo planar imaging (EPI) fMRI sequence (tip angle=90, TR=3 sec, FOV 27.0 cm, fifteen 7 mm thick slices, 1 mm gap). TMS was delivered using a Dantec MagPro with a special nonferromagnetic TMS coil of figure-8 design with an 8-meter cable (Dantec Medical A/S, Skovlunde, Denmark) and a room set up identical to prior TMS/fMRI studies from our group. TMS pulses and the fMRI sequence were interleaved as described before^21. Each cycle, illustrated in FIG. 9, consisted of six 21-sec sub-cycles—four Test and two task (100% RMT stimulation and 120% RMT stimulation). During each sub-cycle, the scanner acquired seven sets of 15 transverse images. During the task sub-cycles the TMS was triggered 100 ms after every […] image acquisition to produce a TMS stimulation rate of 1 Hz. The entire TMS/fMRI sequence lasted 882 sec (14.7 min).
On each visit, immediately after the Motor Cortex MRI study, subjects were removed from the scanner and the TMS device was moved to position it over the left prefrontal cortex. The left prefrontal cortex stimulation site was defined as a location 5-cm rostral and in a parasagittal plane from the site of maximal APB stimulation. Subjects then reentered the scanner for the prefrontal TMS scan, which was identical to the Motor study described above except for the TMS coil location.
Individual fMRI Data Analyses: MR scans were transferred into ANALYZE format and then further processed on Sun workstations (Sun Microsystems, Palo Alto, Calif.). Scans were checked using MEDx3.3 (Sensor Systems Inc, Sterling, Va.) for movement across runs, and then were coregistered to a mean image using automatic image registration. […] After correction of motion, we used a delayed boxcar model, employed a high-pass filter to remove signal drift, cardiac and respiratory effects, and other low frequency artifacts. Then, we spatially transformed each subject's data into the Talairach Atlas (input voxel dimensions, 2.1×2.1×8 mm, to output voxel dimensions, 4×4×4 mm), smoothed (4×2 mm) the data and generated z map with the Statistical Parametric Mapping (SPM) 96 module in MEDx3.3. We assumed an uncorrected F threshold UF P>0.99 to preserve as many voxels as possible for the cluster analysis.
Group fMRI Data Analyses: All subject's unthresholded z maps were combined based on comparison of condition (TMS vs Rest), intensity (100% RMT-TMS vs 120% RMT-TMS), visit (LTG vs Placebo). The combined group z maps were thresholded using z≧3.09 (p≦0.001) and cluster statistical weight (spatial extent threshold) of p<0.05. We used either paired or unpaired t-tests in MEDx3.3 for all comparisons of interest and both areas of stimulation.
Magnitude of BOLD time course response: To compare the magnitudes of BOLD signal changes, two types of data were recorded. The different maps of LTG and placebo were used to make a mask of left motor cortex (82 voxels) and a mask of left hippocampus (19 voxels) (FIGS. 11A and 11B bottom panels). The masks used to define location were taken as an index of relative peak intensity above noise. According to the masks' Talairach coordinates, the mean signal intensity of the highest six contiguous voxels (two in each slice) in each subject was extracted from motor cortex or hippocampus with SPM plotting in MEDx.

Nc1nnc(-c2cccc(Cl)c2Cl)c(N)n1 [LTG, Lamotrigine]
number of active voxels in hippocampus, compared with placebo (100% RMT minus rest over prefrontal cortex, left hippocampus, 8 subjects, Wilcoxon p=0.04): significantly more; also recorded: significantly increased | Z-score, region of activation (LTG day, within day, n = 8, 100% RMT-Rest, Left Hippocampus, Talairach −24,−8,−24): 3.53 | Z-score, region of activation (LTG day, within day, n = 8, 100% RMT-Rest, Left cingulated gyrus, Talairach −8,−8,28): 4.08 | Z-score, region of activation (LTG day, within day, n = 8, 100% RMT-Rest, Left middle frontal gyrus (BA 6), Talairach −32,4,60): 4.04 | Z-score, region of activation (LTG day, within day, n = 8, 100% RMT-Rest, Right hippocampus, Amygdala, Talairach 20,−8,−16): 3.66 | Z-score, region of activation (LTG day, within day, n = 8, 100% RMT-Rest, Right insula (BA 13), Talairach 52,−28,20): 4.26 | Z-score, region of activation (LTG day, within day, n = 8, 100% RMT-Rest, Right middle frontal gyrus, Talairach 40,48,16): 3.96 | Z-score, region of activation (LTG day, within day, n = 8, 100% RMT-Rest, Right postcentral gyrus (BA 3), Talairach 52,−16,40): 3.18 | Z-score, region of activation (LTG day, within day, n = 8, 100% RMT-Rest, Right precentral gyrus, Talairach 36,−4,28): 4.02 | Region of activation (LTG day, within day, n = 8, 120% RMT-100%): No activity | Z-score, region of activation (LTG day, within day, n = 8, 120% RMT-Rest, Left cingulate gyrus, Talairach −8,4,36): 3.98 | Z-score, region of activation (LTG day, within day, n = 8, 120% RMT-Rest, Left medial frontal gyrus (BA 6), Talairach −48,44,−4): 4.15 | Z-score, region of activation (LTG day, within day, n = 8, 120% RMT-Rest, Left postcentral gyrus (BA 2), Talairach −56,−24,36): 4.12 | Z-score, region of activation (LTG day, within day, n = 8, 120% RMT-Rest, Left superior temporal gyrus, Talairach −60,4,−4): 4.14 | Z-score, region of activation (LTG day, within day, n = 8, 120% RMT-Rest, Right precentral gyrus, Talairach 52,−8,44): 4.31 | Z-score, region of activation (LTG day, within day, n = 8, 120% RMT-Rest, Right superior temporal gyrus, Talairach 56,−12,8): 4.53 | Voxels, effect of LTG (between day) (Gyrus frontal medius, Right): 35 | Z-score, effect of LTG (between day) (Gyrus frontal medius, Right, Talairach 30,25,41, p < .01): 2.83 | Voxels, effect of LTG (between day) (Hippocampus, Left): 19 | Z-score, effect of LTG (between day) (Hippocampus, Left, Talairach −25,−11,−25, p < .05): 2.26 | Voxels, effect of LTG (between day) (Insula, Right): 57 | Z-score, effect of LTG (between day) (Insula, Right, Talairach 39,13,1, p < .01): 2.83 | Voxels, effect of LTG (between day) (Postcentral gyrus, Right): 59 | Z-score, effect of LTG (between day) (Postcentral gyrus, Right, Talairach 53,−32,40, p < .01): 2.83 | Voxels, effect of LTG (between day) (Temporal lobe, Left): 112 | Z-score, effect of LTG (between day) (Temporal lobe, Left, Talairach −43,15,−25, p < .001): 3.78 | brain activity in the hippocampus and the orbital frontal gyrus, compared to placebo (formal between-day analysis, 100% RMT prefrontal stimulation vs rest, 8 subjects): increased brain activity; also recorded: increases this activity | % BOLD signal change in left hippocampus, LTG vs placebo, entire time series (prefrontal TMS, 8 subjects, ANOVA F=1.12, p=0.326): failed to show significant differences | % BOLD change in left hippocampus compared with placebo, TMS phase (prefrontal TMS, time points 14-17, 8 subjects, t=−2.69, p=0.009): significantly increased
